Patent US20130131321A1, “LIGANDS FOR ANTIBODY AND Fc-FUSION PROTEIN PURIFICATION BY AFFINITY CHROMATOGRAPHY” (GRAFFINITY PHARMACEUTICALS GMBH, priority 2010, published 2013)

Key:
Palivizumab = assay: Microtiter plate chromatography of resins, Palivizumab (bound, yield); assay type: binding, humanized
Bevacizumab [1] = assay: Microtiter plate chromatography of resins, Bevacizumab whole IgG (bound, yield, selectivity); assay type: binding, humanized
Bevacizumab [2] = molecular target: T1, Bevacizumab (Homo sapiens, UniProt P01857); assay: as above; assay type: binding, humanized; conditions: for Bevacizumab IgG Bound (%): fraction of whole IgG Bevacizumab bound to resin; for Bevacizumab IgG Yield (%): mass of whole IgG Bevacizumab eluted / mass injected
T1 construct: fused on or other part: humanised anti-VEGF-A VH domain N-terminal of the gamma-1 constant region (engineered, no UniProt entry)

[3] = test system: human poly-IgG (h-poly-IgG); assay: Microtiter plate chromatography of resins, human poly-IgG (bound, yield); assay type: binding
Tocilizumab = assay: Microtiter plate chromatography of resins, Tocilizumab (bound, yield); assay type: binding, humanized
host cell proteins (HCP) = assay: Microtiter plate chromatography of resins, host cell proteins (bound); assay type: binding, CHO; conditions: host cell proteins

COc1ccc(NC(=O)c2cc(-c3ccccc3)no2)cc1C(=O)NCCCN [Ligand L51, 2-Methoxy-5-(3-phenylisoxazol-5-ylcarboxamido)benzoic acid (3-amino-1-propyl)amide]
Palivizumab Bound (%) (Palivizumab): 85% | Palivizumab Yield (%) (Palivizumab): 85% | Selectivity (Bevacizumab [1]): 3.3 | Bevacizumab IgG Bound (%) (Bevacizumab [2]): 100% | Bevacizumab IgG Yield (%) (Bevacizumab [2]): 95% | h-poly-IgG Bound (%) [3]: 89% | h-poly-IgG Yield (%) [3]: 89% | Tocilizumab Bound (%) (Tocilizumab): 95% | Tocilizumab Yield (%) (Tocilizumab): 93% | HCP Bound (%) (host cell proteins (HCP)): 30%

COc1ccc(NC(=O)c2cc(-c3ccco3)ccn2)cc1C(=O)NCCCN [Ligand L52, 5-[4-(2-Furyl)pyridin-2-ylcarboxamido]-2-methoxybenzoic acid (3-amino-1-propyl)amide]
Palivizumab Bound (%) (Palivizumab): 100% | Palivizumab Yield (%) (Palivizumab): 83% | Selectivity (Bevacizumab [1]): 2.4 | Bevacizumab IgG Bound (%) (Bevacizumab [2]): 100% | Bevacizumab IgG Yield (%) (Bevacizumab [2]): 99% | h-poly-IgG Bound (%) [3]: 100% | h-poly-IgG Yield (%) [3]: 100% | Tocilizumab Bound (%) (Tocilizumab): 100% | Tocilizumab Yield (%) (Tocilizumab): 100% | HCP Bound (%) (host cell proteins (HCP)): 41%

COc1ccc(-c2noc(C(=O)Nc3ccc(OC)c(C(=O)NCCCN)c3)n2)cc1 [Ligand L54, 2-Methoxy-5-[3-(4-methoxyphenyl)-1,2,4-oxadiazol-5-ylcarboxamido]benzoic acid (3-amino-1-propyl)amide]
Palivizumab Bound (%) (Palivizumab): 100% | Palivizumab Yield (%) (Palivizumab): 84% | Selectivity (Bevacizumab [1]): 2.8 | Bevacizumab IgG Bound (%) (Bevacizumab [2]): 100% | Bevacizumab IgG Yield (%) (Bevacizumab [2]): 100% | h-poly-IgG Bound (%) [3]: 100% | h-poly-IgG Yield (%) [3]: 98% | Tocilizumab Bound (%) (Tocilizumab): 100% | Tocilizumab Yield (%) (Tocilizumab): 100% | HCP Bound (%) (host cell proteins (HCP)): 36%

COc1ccc(NC(=O)c2nc(-c3ccco3)no2)cc1C(=O)NCCCN [Ligand L55, 5-[3-(2-Furyl)-1,2,4-oxadiazol-5-ylcarboxamido]-2-methoxybenzoic acid (3-amino-1-propyl)amide]
Palivizumab Bound (%) (Palivizumab): 100% | Palivizumab Yield (%) (Palivizumab): 99% | Selectivity (Bevacizumab [1]): 3.3 | Bevacizumab IgG Bound (%) (Bevacizumab [2]): 100% | Bevacizumab IgG Yield (%) (Bevacizumab [2]): 95% | h-poly-IgG Bound (%) [3]: 100% | h-poly-IgG Yield (%) [3]: 93% | Tocilizumab Bound (%) (Tocilizumab): 100% | Tocilizumab Yield (%) (Tocilizumab): 100% | HCP Bound (%) (host cell proteins (HCP)): 31%

COc1ccc(NC(=O)c2cc3ncccn3n2)cc1C(=O)NCCCN [Ligand L56, 2-Methoxy-5-(pyrazolo[1,5-a]pyrimidin-2-ylcarboxamido)benzoic acid (3-amino-1-propyl)amide]
Palivizumab Bound (%) (Palivizumab): 81% | Palivizumab Yield (%) (Palivizumab): 79% | Selectivity (Bevacizumab [1]): 4.9 | Bevacizumab IgG Bound (%) (Bevacizumab [2]): 100% | Bevacizumab IgG Yield (%) (Bevacizumab [2]): 95% | h-poly-IgG Bound (%) [3]: 83% | h-poly-IgG Yield (%) [3]: 83% | Tocilizumab Bound (%) (Tocilizumab): 95% | Tocilizumab Yield (%) (Tocilizumab): 95% | HCP Bound (%) (host cell proteins (HCP)): 21%

COc1ccc(NC(=O)c2cn3ccccc3n2)cc1C(=O)NCCCN [Ligand L57, 5-(Imidazo[1,2-a]pyridin-2-ylcarboxamido)-2-methoxybenzoic acid (3-amino-1-propyl)amide]
Palivizumab Bound (%) (Palivizumab): 44% | Palivizumab Yield (%) (Palivizumab): 42% | Selectivity (Bevacizumab [1]): 6.3 | Bevacizumab IgG Bound (%) (Bevacizumab [2]): 100% | Bevacizumab IgG Yield (%) (Bevacizumab [2]): 90% | h-poly-IgG Bound (%) [3]: 53% | h-poly-IgG Yield (%) [3]: 53% | Tocilizumab Bound (%) (Tocilizumab): 78% | Tocilizumab Yield (%) (Tocilizumab): 78% | HCP Bound (%) (host cell proteins (HCP)): 16%

COc1ccc(NC(=O)c2nnc(-c3ccco3)o2)cc1C(=O)NCCCN [Ligand L58, 5-[5-(2-Furyl)-1,3,4-oxadiazol-2-yl]carboxamido-2-methoxybenzoic acid (3-amino-1-propyl)amide]
Palivizumab Bound (%) (Palivizumab): 97% | Palivizumab Yield (%) (Palivizumab): 83% | Selectivity (Bevacizumab [1]): 4.3 | Bevacizumab IgG Bound (%) (Bevacizumab [2]): 100% | Bevacizumab IgG Yield (%) (Bevacizumab [2]): 90% | h-poly-IgG Bound (%) [3]: 98% | h-poly-IgG Yield (%) [3]: 93% | Tocilizumab Bound (%) (Tocilizumab): 100% | Tocilizumab Yield (%) (Tocilizumab): 100% | HCP Bound (%) (host cell proteins (HCP)): 23%
